Results: US20120152149A1, “USE OF 1,3-DIOLS AS BIOCIDES” (BASF SE, priority 2009, published 2012)
Read-outs that look alike come from different tables or passages of the source.

Columns and labels:
Format in all cases: cell-based
[1] = tested on: C. albicans ATCC 10231; test: Preservation stress test, example formulation 1 (standard emulsion O/W); conditions: 1% active substance
Description: (§1) Preservation stress tests (PSTs) were carried out in order to determine the preserving activity of the diols. In the preservation stress test, this is simulated through artificial loadings with microorganisms. These can either be inoculated as mixed population or individually in mixtures independent of one another. The inoculated product samples are incubated under defined conditions and, after defined times, samples are taken in order to determine the germ loading. In the case of adequate preservation, the number of microorganisms should, depending on the type, either decrease or remain constant in order to satisfy the requirements specified, e.g. in Ph. Eur. 6.0. To investigate the preserving effect of the diols, application-typical amounts of the diols were incorporated into example formulations. […] [table] These example formulations were used to prepare various mixtures which each comprised 1% active substance or comprised water instead of the active substance as placebo mixtures. These mixtures were in each case inoculated with the test germs such that a germ loading of 10^5-10^6 CFU/g was present in the test mixture. The bacteria were either used individually for the inoculation or as a mixed culture. To determine the starting germ count, immediately after inoculation, an aliquot was taken, diluted in dilution medium (phosphate buffer, 0.07 molar pH 7.4 (+/−0.2), with 1% Tween 80+0.3% soya lecithin), and the surviving germ count was determined in the dilution stages 10^−1 to 10^−3. The inoculated product samples then incubated for a total of 28 d at 20-25° C. After 2 d, 7 d, 14 d and after 28 d, aliquots were taken and diluted in dilution medium (phosphate buffer, 0.07 molar pH 7.4 (+/−0.2), with 1% Tween 80+0.3% soya lecithin). The surviving germ counts were determined in the dilution stages 10^−1 to 10^−4. The reference point taken for determining the reduction in germ count was the respective initial value of the sample. The results were given as logarithmic reductions.

[2] = tested on: A. niger ATCC 16404; test: as above; conditions: 1% active substance
Description: as §1

[3] = tested on: S. aureus ATCC 6538; test: Preservation stress test, example formulation 2 (roll-on deodorant formulation); conditions: 1% active substance
Description: as §1

[4] = tested on: P. aeruginosa ATCC 15442; test: as above; conditions: 1% active substance
Description: as §1

[5] = tested on: C. albicans ATCC 10231; test: as above; conditions: 1% active substance
Description: as §1

[6] = tested on: E. coli ATCC 10536; test: as above; conditions: 1% active substance
Description: as §1

[7] = tested on: A. niger ATCC 16404; test: as above; conditions: 1% active substance
Description: as §1

[8] = tested on: S. aureus NCIMB 9578; test: Microstatic activity, MIC in tryptone soy broth; conditions: Staphylococcus aureus, NCIMB9578, 30° C., 48 hours
Description: (§2) For this, in each case a 40 percent strength by weight solution of a diol in propylene glycol was prepared at 60° C. This solution was diluted with a double-strength soy solution (double-strength tryptone soy broth) as nutrient medium in the volume ratio 1:1. Further dilution with soy solution produced solutions with the following concentrations: 400 000 ppm (40%), 200 000 ppm (20%), 100 000 ppm (10%), 50 000 ppm (5%), 25 000 ppm (2.5%), 12 500 ppm (1.25%), 6250 ppm (0.625%), 3125 ppm (0.3125%). Pure soy solution was used as negative control. The positive control used was a solution of 5 ml of soy solution which has been treated with 0.1 ml of the respective microorganism. The test solutions consisted of 5 ml of the above-described soy solutions of the diols in the particular concentration which have been mixed with 0.1 ml of the respective microorganism. The samples and controls were incubated in the case of the bacteria at 30° C. for 48 hours, and in the case of fungi over 5 days at 25° C. In each case, the MIC (Minimum Inhibitory Concentration) value was determined. This value indicates the minimum concentration above which the growth of the microorganisms was visibly hindered compared to the corresponding sample without addition of the diol. […] For example, this was evident from the occurrence of clouding or visible growth of the microorganism. […] The MIC value stated is a range between the next higher concentration of a positive test and the same and/or lower concentration of a first negative test.

[9] = tested on: E. coli NCIMB 8545; test: Microstatic activity, MIC in tryptone soy broth; conditions: Escherichia coli, NCIMB8545, 30° C., 48 hours
Description: as §2

[10] = tested on: P. aeruginosa NCIMB 10421; test: Microstatic activity, MIC in tryptone soy broth; conditions: Pseudomonas aeruginosa, NCIMB10421, 30° C., 48 hours
Description: as §2

[11] = tested on: C. albicans NCPF 3179; test: Microstatic activity, MIC in tryptone soy broth; conditions: Candida albicans, NCPF3179, 120 h, 25° C., 5 days
Description: as §2

[12] = tested on: series of tested microorganisms (bacteria and fungi); test: Microstatic activity, highest MIC from the series of tested microorganisms; conditions: highest measured MIC from the series of tested microorganisms
Description: The following microorganisms were used;to test the biocidal effect against various bacteria and fungi: In each case, the MIC (Minimum Inhibitory Concentration) value was determined. This value indicates the minimum concentration above which the growth of the microorganisms was visibly hindered compared to the corresponding sample without addition of the diol. The MIC value stated is a range between the next higher concentration of a positive test and the same and/or lower concentration of a first negative test. In the last line of each of the tables below, a “maximum” value is listed. This value indicates the highest measured MIC value in each case from the series of tested microorganisms.

[13] = lower limit of MIC range, read-out: MIC value (ppm of diol), from
[14] = upper limit of MIC range, read-out: MIC value (ppm of diol), to
[15] = lower limit, read-out: Maximum MIC value (ppm of diol), from
[16] = upper limit, read-out: Maximum MIC value (ppm of diol), to

| Structure (SMILES) | Microbicidal activity given as logarithmic reduction in germ count ([1]; 48 h) | Microbicidal activity given as logarithmic reduction in germ count ([1]; 7 d) | Microbicidal activity given as logarithmic reduction in germ count ([1]; 14 d) [log. Red.] | Microbicidal activity given as logarithmic reduction in germ count ([2]; 48 h) [log. Red.] | Microbicidal activity given as logarithmic reduction in germ count ([2]; 7 d) [log. Red.] | Microbicidal activity given as logarithmic reduction in germ count ([2]; 14 d) [log. Red.] | Microbicidal activity given as logarithmic reduction in germ count ([3]; 48 h) | Microbicidal activity given as logarithmic reduction in germ count ([3]; 7 d) [log. Red.] | Microbicidal activity given as logarithmic reduction in germ count ([3]; 14 d) [log. Red.] | Microbicidal activity given as logarithmic reduction in germ count ([4]; 48 h) [log. Red.] | Microbicidal activity given as logarithmic reduction in germ count ([4]; 7 d) | Microbicidal activity given as logarithmic reduction in germ count ([4]; 14 d) [log. Red.] | Microbicidal activity given as logarithmic reduction in germ count ([5]; 48 h) [log. Red.] | Microbicidal activity given as logarithmic reduction in germ count ([5]; 7 d) | Microbicidal activity given as logarithmic reduction in germ count ([5]; 14 d) [log. Red.] | Microbicidal activity given as logarithmic reduction in germ count ([6]; 48 h) [log. Red.] | Microbicidal activity given as logarithmic reduction in germ count ([6]; 7 d) | Microbicidal activity given as logarithmic reduction in germ count ([6]; 14 d) [log. Red.] | Microbicidal activity given as logarithmic reduction in germ count ([7]; 48 h) [log. Red.] | Microbicidal activity given as logarithmic reduction in germ count ([7]; 7 d) [log. Red.] | further results |
| --- | --- | --- | --- | --- | --- | --- | --- | --- | --- | --- | --- | --- | --- | --- | --- | --- | --- | --- | --- | --- | --- |
| CCCC(O)CO (stereo not shown) [1,2-Pentanediol, 1,2-pentanediol, reference compound] | 0 log. Red. | 0 log. Red. | 0 | 0 | 0 | 0 | 1 log. Red. | 1 | 5 | 0 | 3 log. Red. | 5 | 0 | 0 log. Red. | 0 | 0 | 1 log. Red. | 1 | 0 | 0 | Microbicidal activity given as logarithmic reduction in germ count ([7]; 14 d): 0 log. Red.; MIC [8, 13]: > 25 mg/mL; MIC [8, 14]: ≤ 50 mg/mL; MIC [9, 13]: > 25 mg/mL; MIC [9, 14]: ≤ 50 mg/mL; MIC [10, 13]: > 12.5 mg/mL; MIC [10, 14]: ≤ 25 mg/mL; MIC [11, 13]: > 25 mg/mL; MIC [11, 14]: ≤ 50 mg/mL; MIC [12, 15]: > 25 mg/mL; MIC [12, 16]: ≤ 50 mg/mL |
| OCC1(CO)CC2CCC1C2 (stereo not shown) [2,2-DMNB, 2,2-dimethylolnorbornane] | 1 log. Red. | ≧3 log. Red. | 5 | 0 | 0 | 0 | ≧3 log. Red. | 5 | 5 | 3 | 5 log. Red. | 5 | 0 | ≧3 log. Red. | 0 | 2 | ≧3 log. Red. | 5 | 0 | 0 | Microbicidal activity given as logarithmic reduction in germ count ([1]; 28 d): 5 log. Red.; Microbicidal activity given as logarithmic reduction in germ count ([2]; 28 d): 0 log. Red.; Microbicidal activity given as logarithmic reduction in germ count ([3]; 28 d): 5 log. Red.; Microbicidal activity given as logarithmic reduction in germ count ([4]; 28 d): 5 log. Red.; Microbicidal activity given as logarithmic reduction in germ count ([6]; 28 d): 5 log. Red.; Microbicidal activity given as logarithmic reduction in germ count ([7]; 14 d): 0 log. Red.; MIC [8, 13]: > 12.5 mg/mL; MIC [8, 14]: ≤ 25 mg/mL; MIC [9, 13]: > 3.12 mg/mL; MIC [9, 14]: ≤ 6.25 mg/mL; MIC [10, 13]: > 12.5 mg/mL; MIC [10, 14]: ≤ 25 mg/mL; MIC [11, 13]: > 50 mg/mL; MIC [11, 14]: ≤ 100 mg/mL; MIC [12, 15]: > 50 mg/mL; MIC [12, 16]: ≤ 100 mg/mL |
| OCC1(CO)CCCC1 [DMCP, 1,1-dimethylolcyclopentane] | ≧3 log. Red. | 5 log. Red. | 5 | 2 | 1 | 2 | ≧3 log. Red. | 5 | 5 | 1 | ≧3 log. Red. | 5 | 0 | 0 log. Red. | 0 | 1 | 3 log. Red. | 5 | 0 | 0 | Microbicidal activity given as logarithmic reduction in germ count ([1]; 28 d): 5 log. Red.; Microbicidal activity given as logarithmic reduction in germ count ([2]; 28 d): 2 log. Red.; Microbicidal activity given as logarithmic reduction in germ count ([3]; 28 d): 5 log. Red.; Microbicidal activity given as logarithmic reduction in germ count ([4]; 28 d): 5 log. Red.; Microbicidal activity given as logarithmic reduction in germ count ([6]; 28 d): 5 log. Red.; Microbicidal activity given as logarithmic reduction in germ count ([7]; 14 d): 0 log. Red.; MIC [8, 13]: > 3.12 mg/mL; MIC [8, 14]: ≤ 6.25 mg/mL; MIC [9, 13]: > 3.12 mg/mL; MIC [9, 14]: ≤ 6.25 mg/mL; MIC [10, 13]: > 12.5 mg/mL; MIC [10, 14]: ≤ 25 mg/mL; MIC [11, 13]: > 25 mg/mL; MIC [11, 14]: ≤ 50 mg/mL; MIC [12, 15]: > 50 mg/mL; MIC [12, 16]: ≤ 100 mg/mL |
